Results from patent US20130253039A1, “COLORECTAL CANCER TREATMENTS AND DIAGNOSTIC IMPROVEMENTS” (priority 2012, published 2013).
Like-named read-outs stand apart in the source and are kept apart here.

Legend:
GTP pools = experiment: GTP concentration in colorectal cancer cells after tiazofurin treatment (HPLC); format: cell-based, human; conditions: 4 h
Protocol: The y-axis of the bar graph indicate the GTP concentration in nmol per million cells while the x-axis gives the tiazofurin concentration used; Panels C and F, effect of TAD concentration following tiazofurin treatment. Triplicate flasks were set-up with each cell line, treated with tiazofurin Caco2 (300 μM), and HT29 (150 μM) for 4 h and processed as detailed in Methods section below. The y-axis indicates the TAD concentration in nmol per million cells. ? Wild-type (WT), ? hNMNAT2 transfected cell line. • *Denotes statistical significance (P<0.05) NS Denotes not significant
(§1) For the determination of GTP and TAD, colorectal cancer cells were treated with concentration of tiazofurin (specified in legends to figures) or with saline for 4 h and cell extracts were prepared as detailed earlier. An aliquot of neutralized extract was injected into Phenomenex Gemini 250×4.6 mm, 5μ C18 110A column (Torrance, Calif.) maintained at 19° C., preequilibrated with buffer A (0.1 M potassium phosphate, pH 6.0) and then subjected to a stepwise gradient of buffer A with 20% acetonitrile, pH 6.0 over 30 min and analyzed on Shimadzu High Performance Liquid Chromatography (Canby, Oreg.). Under these conditions GTP eluted at 10 min separated from other nucleotides.

colorectal cancer = conditions: 21 patients, bolus once a day for 5 days; cited from earlier work
[1] = tested on: hNMNAT2-over-expressed HT29; experiment: Antitumor activity in athymic mice with subcutaneous hNMNAT2-over-expressed HT29 tumors; format: in vivo
Protocol: (§2) In vivo studies were conducted studies to compare antitumor activity of tiazofurin in athymic mice implanted subcutaneously with wild-type and hNMNAT2-over-expressed HT29 cell lines. Groups of five female athymic mice 6-8 weeks old, weighing 16-18 grams, obtained from Harlan Sprague Dawley, Indianapolis, Ind., were injected with wild-type or hNMNAT2-over-expressed HT29 (2×10^6 cells/mice), and tumors were allowed to establish for 7 days. Mice were then treated intraperitoneally with saline or tiazofurin once-a-day for 10 days (QD10) and tumor volume and weights were monitored twice a week. […] There was a dose-dependent decrease in tumor volume following tiazofurin treatment in mice bearing wild-type HT29 (70% decrease in tumor volume at 200 mg/kg and 50% decrease in tumor volume at 50 mg/kg). […] These studies indicate that hNMNAT2-gene-targeted tiazofurin therapy for colorectal cancer is feasible. Further decreasing the dose of tiazofurin will be possible by targeting FR and/or CEA and encapsulating tiazofurin in folate-tethered nanoparticles. Further targeting would translate to additional lowering of tiazofurin induced side-effects.

TAD concentration = TAD concentration in colorectal cancer cells after tiazofurin treatment (HPLC); format: cell-based, human; conditions: 4 h
Protocol: Panels A, B, D, and E, triplicate flasks were set-up with each cell line, treated with tiazofurin (0, 150 and 300 μM) for Caco2 and (0, 50 and 150 μM) for HT29 for 4 h and the cells were processed as detailed in Methods section below. The y-axis of the bar graph indicate the GTP concentration in nmol per million cells while the x-axis gives the tiazofurin concentration used; Panels C and F, effect of TAD concentration following tiazofurin treatment. Triplicate flasks were set-up with each cell line, treated with tiazofurin Caco2 (300 μM), and HT29 (150 μM) for 4 h and processed as detailed in Methods section below. The y-axis indicates the TAD concentration in nmol per million cells. ? […]
as §1, with “Under these conditions GTP eluted at 10 min separated from other nucleotides.” left out

wild-type HT29 = experiment: Antitumor activity in athymic mice with subcutaneous wild-type HT29 tumors; format: in vivo
Protocol: as §2

[2] = tested on: hNMNAT-2-shRNA knockdown cells (Caco2); experiment: Cell-kill assay, hNMNAT-2-shRNA knockdown Caco2 cells; format: cell-based; conditions: Homo sapiens, Caco-2; hNMNAT2 overexpressing Caco2 silenced with hNMNAT2-shRNA, puromycin selected
Text: Colorectal cancer Caco2 cells overexpressing hNMNAT2 were transfected with control shRNA plasmid and NMNAT2 small hairpin shRNA plasmid (sc-62693-SH: NMNAT2 shRNA Plasmid (h) is a pool of 3 different shRNA plasmids with a hairpin sequence: […] (SEQ ID NO: 3) and sc-62693-SHA: 5′-GUAGAAAGUGAGACUCAAUtt-3′ (SEQ ID NO: 4) and 5′-AUUGAGUCUCACUUUCUACtt-3′ (SEQ ID NO: 5); sc-62693-SHB: 5′-CCUUAGGAAUAGCAUUGUAtt-3′ (SEQ ID NO: 6) and 5′-UACAAUGCUAUUCCUAAGGtt-3′ (SEQ ID NO: 7); sc-62693-SHC: 5′-GCUCUUUCCCUCAACCUUAtt-3′ (SEQ ID NO: 8) and 5′-UAAGGUUGAGGGAAAGAGCtt-3′ (SEQ ID NO: 9). Transfection was conducted for 8 h as per manufacturer's instructions (Santa Cruz Biotechnology, Inc., Santa Cruz, Calif.). Puromycin resistant clones were selected and knockdown of hNMNAT2 was confirmed by Western blot analyses.

HCT116 = experiment: Cell-kill assay, HCT116; format: cell-based; conditions: Homo sapiens, HCT-116; free tiazofurin, 72 h
Protocol: (§3) Human colorectal cancer cell lines HCT15, HCT116, HT29, HCC2998, and Caco2 were obtained from the National Cancer Institute, Bethesda, Md., USA, maintained in 5% CO2 at 3TC in minimum essential media containing 2.3 μM folic acid (MEM, Life Technologies, Inc., Grand Island, N.Y.) supplemented with 1% penicillin, streptomycin, amphotericin B (Invitrogen, Carlsbad, Calif.), and 10% fetal bovine serum (FBS) for all cell lines except Caco2, which required 20% FBS for optimal growth. Caco2 and HT29 cells were adapted to grow in a low-folate (LF) condition by step-wise reduction of the folate concentration in the medium and finally were stably adapted to grow in folate-free MEM supplemented with 20% and 10% FBS, respectively. The complete LF medium with 20% FBS for Caco2 cells contained 18 nM 5-methyltetrahydrofolate and the LF medium with 10% FBS for HT29 cells contained 9 nM 5-methyltetrahydrofolate. The cells were cultured in low 5-methyltetrahydrofolate conditioned medium for at least 20 generations before they were used in the experiments to promote full expression of folate receptors, and logarithmically growing cells were utilized for all studies.

Caco2 = experiment: Cell-kill assay, wild-type Caco2; format: cell-based, human
Protocol: as §3

HCT15 = experiment: Cell-kill assay (dye-based cell proliferation), HCT15; conditions: Homo sapiens, HCT-15; free tiazofurin, 72 h
Protocol: as §3

HCC2998 = experiment: Cell-kill assay, HCC2998; format: cell-based; conditions: Homo sapiens, HCC 2998; free tiazofurin, 72 h
Protocol: as §3

HT29 = experiment: Cell-kill assay, wild-type HT29; format: cell-based, human; conditions: for EC50: wild-type HT29, free tiazofurin, 72 h, read-out: Cytotoxicity EC50, Wild-type
Protocol: as §3

IMPDH = target: T1, IMPDH (Homo sapiens, UniProt P12268); experiment: IMPDH activity in Caco2 cell lines after tiazofurin treatment; format: cell-based; conditions: 4 h
T1 construct: endogenous in cells; host or cells: Caco2 (wild-type and hNMNAT2-transfected)
T1 sequence (P12268 2-514): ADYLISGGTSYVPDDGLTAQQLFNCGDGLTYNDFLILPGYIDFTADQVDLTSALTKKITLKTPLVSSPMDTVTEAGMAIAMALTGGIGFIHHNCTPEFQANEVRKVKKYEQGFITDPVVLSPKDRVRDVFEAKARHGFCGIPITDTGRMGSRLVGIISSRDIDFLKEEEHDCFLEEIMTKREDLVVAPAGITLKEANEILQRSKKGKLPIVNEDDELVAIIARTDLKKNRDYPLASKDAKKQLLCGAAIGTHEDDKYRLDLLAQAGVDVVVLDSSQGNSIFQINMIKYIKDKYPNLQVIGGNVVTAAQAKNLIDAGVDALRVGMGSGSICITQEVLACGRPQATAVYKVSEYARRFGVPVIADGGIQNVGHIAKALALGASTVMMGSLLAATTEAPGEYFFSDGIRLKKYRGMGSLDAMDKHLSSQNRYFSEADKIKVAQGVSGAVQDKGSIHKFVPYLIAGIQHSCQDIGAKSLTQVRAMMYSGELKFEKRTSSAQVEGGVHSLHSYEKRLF
Protocol: Panel A, Cells were Processed and NAD levels were determined in the cytoplasmic extracts as described in the Methods section, below. […] Triplicate flasks were set-up with each cell line and incubated with saline or tiazofurin (100-300 μM) for 4 h at 3TC. Cells were processed as described in the Methods section below. Basal IMPDH activity in saline treated control was 1.85 […] of XMP synthesized/mg protein/min; Panel D, NMNAT enzyme activity in wild-type and hNMNAT2 transfected Caco2 cell lines. The y-axis of the bar graph indicates the NMNAT activity in unit/mg of protein; Panel E, hNMNAT2 expression in cytoplasm, nucleus, and mitochondria. Cytoplasmic, nuclear, and mitochondrial proteins were isolated as detailed in the Methods section below and expression of hNMNAT2 protein was determined by Western blot analysis in wild-type and hNMNAT2 transfected caco2 cell lines; Panel F, silencing of hNMNAT2 expression in hNMNAT2 overexpressing cell line. hNMNAT2 expression in transfected Caco2 cell lines was silenced by shRNA-NMNAT2 and there expression was determined by Western blot analysis; Panel G, the wild-type, hNMNAT2 overexpressing, and hNMNAT2 overexpressing Caco2 cell lines were subjected to cell-kill by tiazofurin. ? […]
Colorectal cancer cells were extracted and IMPDH activity was assayed as described and activity is expressed as nmol/min/mg protein [8]. […]

[3] = dose of 1,100 mg/m^2, patients; cited from earlier work
[4] = tested on: hNMNAT2 transfected HT29 cell line; experiment: Cell-kill assay, hNMNAT2 transfected HT29; conditions: Homo sapiens, HT-29, 72 h, read-out: Cytotoxicity EC50, hNMNAT2
Protocol: (§4) Colorectal cancer cells were transfected with pTracer hNMNAT2 and the control plasmid pTracerEFV5/HisA using the lipofectamine reagent (Invitrogen, Carlsbad, Calif.). Zeocin resistant green fluorescence protein (GFP) expressing clones were further analyzed by Fluorescence-activated cell sorting (Becton Dickinson Immunocytometry Systems, San Jose, Calif.).
(§5) Colorectal cancer cells (1500 cells/0.1 ml) were dispensed into 96-well tissue culture plates and 24 h later treated with serial dilutions of free tiazofurin or nanoparticles containing tiazofurin (for nanoparticle treatment, cells were incubated for 2 h with gentle shaking, aspirated and fresh media was added) and further incubated for 72 h at 3TC. After incubation, 20 μl of 3-(4,5-dimethylthiazol-2-yl)-5-(3-carboxymethoxyphenyl)-2-(4-sulfophenyl)-2H-tetrazolium reagent was added to each well, mixed, plates were further incubated for 2 h and color developed was read at 490 nm using a microplate spectrophotometer (Spectra MAX250, Molecular Devices, Sunnnyvale, Calif.) and cell-kill data were analyzed by Graphpad Prism 4 software (GraphPad Software, San Diego, Calif.).

[5] = tested on: hNMNAT2 transfected Caco2 cell line; experiment: Cell-kill assay, hNMNAT2 transfected Caco2; conditions: Homo sapiens, Caco-2, 72 h, read-out: Cytotoxicity EC50, hNMNAT2
Protocol: as §4, §5

[6] = tested on: human colorectal carcinoma; conditions: mouse, in vivo; cited from earlier work
[7] = 50 mg/kg intraperitoneally once-a-day for 10 days
[8] = 200 mg/kg intraperitoneally once-a-day for 10 days

With NC(=O)c1csc([C@@H]2O[C@H](CO)[C@@H](O)[C@H]2O)n1 [tiazofurin, 2-R-D-ribofuranosylthiazole-4-carboxamide] the “Reduction in GTP levels” value (GTP pools; hNMNAT2-transfected Caco2, 150 μM tiazofurin) was 40%, the “Reduction in GTP levels” value (GTP pools; hNMNAT2-transfected Caco2, 300 μM tiazofurin) was 60% and the “Reduction in GTP levels” value (GTP pools; hNMNAT2-transfected HT29, 25 μM tiazofurin) was 21%. The “Reduction in GTP levels” value (GTP pools; hNMNAT2-transfected HT29, 100 μM tiazofurin) was 47%, the “Reduction in GTP pools” value (GTP pools; wild-type Caco-2, 150 μM tiazofurin) was 29% and the “Reduction in GTP pools” value (GTP pools; wild-type Caco-2, 300 μM tiazofurin) was 45%. The GTP reduction (GTP pools; wild-type HT29, 25 μM tiazofurin) was “did not result in GTP reduction”, the GTP reduction (GTP pools; wild-type HT29, 100 μM tiazofurin) was 22% and the Antitumor activity (colorectal cancer) was “no significant antitumor activity”. For the same compound, the Effect on tumor [1, 7] was “complete disappearance of tumor”, the Effect on tumor [1, 8] was “complete disappearance of tumor” and the “Fold higher concentration of TAD in hNMNAT2 overexpressing vs wild-type cell line” value (TAD concentration; Caco2, tiazofurin 300 μM) was 2 fold. The “Fold higher levels of TAD in hNMNAT2-overexpressing vs wild-type cell line” value (TAD concentration; HT29, tiazofurin 150 μM) was 2 fold, the “Decrease in tumor volume” value (wild-type HT29; [7]) was 50% and the “Decrease in tumor volume” value (wild-type HT29; [8]) was 70%. It also gave an EC50 [2] of 380 µM, an EC50 (HCT116) of 72.6 µM and an EC50 (Caco2; Homo sapiens, Caco-2, 72 h, wild-type Caco2, free tiazofurin, 72 h, read-out: Cytotoxicity EC50, Wild-type) of 450 µM. For the same compound, the “Influence of silencing hNMNAT3 on cell-kill by tiazofurin” value (Caco2; wild-type and hNMNAT2 overexpressing Caco2, siRNA-hNMNAT3 24 h) was “no change in the dose of tiazofurin required to provide 50% cell-kill”, the “Influence of silencing hNMNAT1 on cell-kill by tiazofurin” value (Caco2; wild-type or hNMNAT2 overexpressing Caco2, siRNA-hNMNAT1 day 3) was “did not have any influence on cell-kill by tiazofurin” and the EC50 (HCT15) was 63.9 µM. For the same compound, the EC50 (HCC2998) was 274 µM, the EC50 (HT29; Homo sapiens, HT-29, 72 h) was 125 µM and the EC50 (HT29) was 130 ± 8 µM. The “Influence of silencing hNMNAT3 on cell-kill by tiazofurin” value (HT29; wild-type and hNMNAT2 overexpressing HT29, siRNA-hNMNAT3 24 h) was “did not influence cell-kill by tiazofurin”, the “Influence of silencing hNMNAT1 on cell-kill by tiazofurin” value (HT29; wild-type or hNMNAT2-overexpressing HT29, siRNA-hNMNAT1 day 3) was “had no effect on tiazofurin cell-kill” and the EC50 (IMPDH; hNMNAT2 transfected Caco2, tiazofurin 100-300 μM, read-out: EC50 of decrease in IMPDH activity) was 250 µM. For the same compound, the “Effect on IMPDH activity” value (IMPDH; wild-type Caco2, sub-lethal tiazofurin 100-300 μM) was “no reduction in IMPDH activity”, the Peak plasma concentration [3] was 240 µM and the EC50 [4] was 80 ± 3 µM. The EC50 [5] was 225 µM and the Antitumor activity [6] was “significant antitumor activity”.
